# Measured values: ChEMBL document CHEMBL1201862, “PubChem BioAssay data set” (2004)
# Activity calls are given as the source filed them.
# What was measured:
# Cytochrome P450 3A4 = Cytochrome P450 3A4 (Homo sapiens, UniProt P08684); conditions: Potency;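 further: confirmatory qHTS run detecting inhibitors and substrates of CYP3A4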
# [1] = biological target: T1, Neuropeptide Y receptor type 1 (Homo sapiens, UniProt P25929); experiment: Fluorescence-based counterscreen for agonists of NPY-Y2: cell-based high-throughput dose response assay for agonists of NPY-Y1.; type: functional
# T1 sequence (P25929 whole entry): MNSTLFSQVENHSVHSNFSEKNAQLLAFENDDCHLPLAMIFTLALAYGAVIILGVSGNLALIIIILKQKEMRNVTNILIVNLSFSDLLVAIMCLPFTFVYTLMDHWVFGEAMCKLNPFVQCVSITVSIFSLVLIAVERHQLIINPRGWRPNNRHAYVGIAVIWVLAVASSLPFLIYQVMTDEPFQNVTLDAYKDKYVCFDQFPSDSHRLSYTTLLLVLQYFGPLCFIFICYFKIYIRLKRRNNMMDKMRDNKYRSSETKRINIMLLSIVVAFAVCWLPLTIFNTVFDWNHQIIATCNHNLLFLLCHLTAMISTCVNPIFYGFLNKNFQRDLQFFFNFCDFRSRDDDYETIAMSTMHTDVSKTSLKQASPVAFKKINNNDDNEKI
# [2] = biological target: T2, Neuropeptide Y receptor type 2 (Homo sapiens, UniProt P49146); experiment: Fluorescence-based cell-based high-throughput dose response assay for agonists of NPY-Y2. [Related pubchem assays: 1703 (Screening assay (CNGC inhibitors).), 1359 (Screening assay (NPY-Y2 potentiators or agonists).), 1304 (Screening assay (NPY-Y1 potentiators or agonists).), 1710 (Screening assay (NPY-Y2 agonists).), 1791 (Summary AID.)]; type: functional
# T2 sequence (P49146 whole entry): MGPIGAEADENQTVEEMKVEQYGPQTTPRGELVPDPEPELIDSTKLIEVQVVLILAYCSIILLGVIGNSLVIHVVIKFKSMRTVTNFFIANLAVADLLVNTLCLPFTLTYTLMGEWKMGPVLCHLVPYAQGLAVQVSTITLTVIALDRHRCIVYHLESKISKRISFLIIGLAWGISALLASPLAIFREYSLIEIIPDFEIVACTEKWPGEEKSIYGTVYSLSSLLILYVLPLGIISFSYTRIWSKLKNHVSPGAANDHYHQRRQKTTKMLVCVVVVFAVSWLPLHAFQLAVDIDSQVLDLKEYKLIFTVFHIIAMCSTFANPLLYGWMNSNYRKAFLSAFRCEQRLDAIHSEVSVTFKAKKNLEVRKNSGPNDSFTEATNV
# HEK293 = experiment: Fluorescence-based counterscreen for potentiators or agonists of NPY-Y2: cell-based high-throughput dose response assay to identify inhibitors of cyclic nucleotide gated ion channel (CNGC) activity. In this assay, the parental HEK293 cell line transfected with a cyclic-nucleotide gated ion channel (CNGC)-based cAMP sensor is used to measure inhibition of isoproterenol-induced CNGC activity by test compound.; type: functional; conditions: Homo sapiens;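 further: stimulus is 1 µM isoproterenol at EC100 plus PDE inhibitor Ro 20-1724 at 25 µM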
# [3] = biological target: T3, Eukaryotic translation initiation factor 2-alpha kinase 3 (Homo sapiens, UniProt Q9NZJ5); experiment: Dose response cell-based high-throughput screening assay to measure PERK inhibition. [Related pubchem assays: 1416 ]; type: functional
# T3 sequence (Q9NZJ5 whole entry): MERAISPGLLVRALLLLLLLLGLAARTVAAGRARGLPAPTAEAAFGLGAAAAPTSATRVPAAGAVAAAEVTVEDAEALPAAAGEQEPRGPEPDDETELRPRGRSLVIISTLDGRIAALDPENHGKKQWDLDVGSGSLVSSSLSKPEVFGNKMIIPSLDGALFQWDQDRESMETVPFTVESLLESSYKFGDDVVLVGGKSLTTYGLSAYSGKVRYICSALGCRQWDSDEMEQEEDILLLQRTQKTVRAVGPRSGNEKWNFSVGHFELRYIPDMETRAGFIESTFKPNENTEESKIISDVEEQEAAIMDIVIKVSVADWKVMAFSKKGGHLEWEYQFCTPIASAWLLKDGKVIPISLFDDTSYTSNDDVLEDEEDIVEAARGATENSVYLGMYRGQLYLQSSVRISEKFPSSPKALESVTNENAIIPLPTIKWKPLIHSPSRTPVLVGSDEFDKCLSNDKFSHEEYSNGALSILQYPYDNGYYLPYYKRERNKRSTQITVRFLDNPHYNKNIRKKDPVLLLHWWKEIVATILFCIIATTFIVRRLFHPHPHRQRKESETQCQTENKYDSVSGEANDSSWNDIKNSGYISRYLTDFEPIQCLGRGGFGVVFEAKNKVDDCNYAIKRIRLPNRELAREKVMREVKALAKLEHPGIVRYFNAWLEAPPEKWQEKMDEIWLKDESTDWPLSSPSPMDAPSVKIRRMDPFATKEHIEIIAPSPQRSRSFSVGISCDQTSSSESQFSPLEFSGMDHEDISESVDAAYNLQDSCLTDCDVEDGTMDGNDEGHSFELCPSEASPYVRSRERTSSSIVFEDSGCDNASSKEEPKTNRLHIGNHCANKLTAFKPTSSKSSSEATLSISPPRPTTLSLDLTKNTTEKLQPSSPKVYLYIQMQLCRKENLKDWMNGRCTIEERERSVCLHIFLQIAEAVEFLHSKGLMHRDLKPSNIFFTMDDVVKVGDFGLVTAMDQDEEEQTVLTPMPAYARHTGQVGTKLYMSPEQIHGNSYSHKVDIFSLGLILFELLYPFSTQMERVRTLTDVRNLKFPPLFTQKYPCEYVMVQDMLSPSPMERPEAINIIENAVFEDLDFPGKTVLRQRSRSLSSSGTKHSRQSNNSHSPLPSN
# [4] = biological target: T3, Eukaryotic translation initiation factor 2-alpha kinase 3; experiment: Counterscreen assay for PERK inhibitors: Dose response cell-based high throughput screening assay to measure inhibition of PERK at 6 hours. [Related pubchem assays: 1522, 1416 ]; type: functional
# [5] = biological target: Acyl-homoserine lactone acylase PvdQ (Pseudomonas aeruginosa (strain LESB58), UniProt Q9I194); experiment: PvdQ acylase enzyme activity blockers – biochemical, fluorescence, plate reader and imaging, cherry-picks, dose response (AID 493231)
# [6] = biological target: Lysosomal acid glucosylceramidase (Homo sapiens, UniProt P04062); experiment: Dose response cell-based high throughput screening assay to identify enhancers of beta-glucosidase activity. [Related pubchem assays: 784 ]; type: functional
# cells = type: functional
# Bcl-2-like protein 10 = Bcl-2-like protein 10 (Homo sapiens, UniProt Q9HD36); experiment: Bcl-B/TR3 peptide binding disruption – biochemical, fluorescence polarization, FITC-TR3 peptide, selectivity assay for Bfl-1 inhibitor project, primary screen (AID 748);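 further: fluorescence polarization from a fluorescein-labelled TR3 peptide binding purified Bcl-B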
# [7] = biological target: Melanin-concentrating hormone receptor 1 (Homo sapiens, UniProt Q99705); experiment: Late-stage fluorescence-based counterscreen for antagonists of the G-protein coupled receptor 7 (GPR7): cell-based dose response assay to identify antagonists of the melanin-concentrating hormone receptor 1 (MCHR1). [Related pubchem assays (depositor defined):AID1861, AID1880, AID1952, AID2148, AID2251, AID2257, AID485339]; type: functional;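 further: stimulated with 30 nM MCH peptide agonist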
# Melanin-concentrating hormone receptor 1, sequence (Q99705 whole entry): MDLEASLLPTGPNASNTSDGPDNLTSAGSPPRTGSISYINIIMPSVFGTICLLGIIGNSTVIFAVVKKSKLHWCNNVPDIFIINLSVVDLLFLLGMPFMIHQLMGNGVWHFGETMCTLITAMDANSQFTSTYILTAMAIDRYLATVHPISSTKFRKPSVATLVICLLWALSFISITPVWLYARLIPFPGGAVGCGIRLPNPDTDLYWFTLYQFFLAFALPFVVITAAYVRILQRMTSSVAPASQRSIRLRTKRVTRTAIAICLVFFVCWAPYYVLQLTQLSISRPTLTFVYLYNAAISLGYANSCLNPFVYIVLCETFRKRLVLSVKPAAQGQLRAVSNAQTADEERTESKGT
# Lysosomal acid glucosylceramidase, sequence (P04062 whole entry): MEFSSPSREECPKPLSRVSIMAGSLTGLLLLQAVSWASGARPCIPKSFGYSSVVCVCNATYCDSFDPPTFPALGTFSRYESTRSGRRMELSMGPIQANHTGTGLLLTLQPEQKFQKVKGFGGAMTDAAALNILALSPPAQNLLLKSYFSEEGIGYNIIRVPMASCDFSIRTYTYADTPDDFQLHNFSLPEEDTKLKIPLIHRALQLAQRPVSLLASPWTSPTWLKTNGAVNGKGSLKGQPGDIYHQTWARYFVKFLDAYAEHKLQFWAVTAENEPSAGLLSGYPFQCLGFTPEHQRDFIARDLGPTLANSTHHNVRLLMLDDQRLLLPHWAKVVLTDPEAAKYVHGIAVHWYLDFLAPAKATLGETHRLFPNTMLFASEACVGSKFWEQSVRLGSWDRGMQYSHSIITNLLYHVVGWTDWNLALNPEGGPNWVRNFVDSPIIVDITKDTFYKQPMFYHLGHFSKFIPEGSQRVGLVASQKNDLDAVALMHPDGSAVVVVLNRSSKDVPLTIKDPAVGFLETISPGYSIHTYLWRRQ
# Acyl-homoserine lactone acylase PvdQ, sequence (Q9I194 24-193 limits assumed): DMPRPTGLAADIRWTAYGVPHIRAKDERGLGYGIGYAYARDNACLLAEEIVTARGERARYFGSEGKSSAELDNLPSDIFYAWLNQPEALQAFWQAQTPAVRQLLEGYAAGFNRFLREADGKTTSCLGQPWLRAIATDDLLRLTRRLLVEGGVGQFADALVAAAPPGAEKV
# Acyl-homoserine lactone acylase PvdQ, sequence (Q9I194 217-762 limits assumed): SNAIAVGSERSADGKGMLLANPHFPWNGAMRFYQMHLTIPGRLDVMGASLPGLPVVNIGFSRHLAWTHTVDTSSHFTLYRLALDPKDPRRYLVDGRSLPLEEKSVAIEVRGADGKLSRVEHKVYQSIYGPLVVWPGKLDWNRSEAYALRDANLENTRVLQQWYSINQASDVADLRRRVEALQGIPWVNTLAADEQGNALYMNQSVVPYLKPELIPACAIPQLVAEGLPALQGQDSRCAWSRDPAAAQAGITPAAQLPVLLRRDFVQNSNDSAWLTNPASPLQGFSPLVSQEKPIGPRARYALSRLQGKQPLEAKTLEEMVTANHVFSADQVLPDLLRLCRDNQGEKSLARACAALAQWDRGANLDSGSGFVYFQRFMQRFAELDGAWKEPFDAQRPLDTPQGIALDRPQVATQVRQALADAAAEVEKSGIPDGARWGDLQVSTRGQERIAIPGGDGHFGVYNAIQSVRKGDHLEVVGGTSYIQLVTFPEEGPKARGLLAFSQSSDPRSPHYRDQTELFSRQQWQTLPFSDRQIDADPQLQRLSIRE
# Cytochrome P450 3A4, sequence (P08684 whole entry): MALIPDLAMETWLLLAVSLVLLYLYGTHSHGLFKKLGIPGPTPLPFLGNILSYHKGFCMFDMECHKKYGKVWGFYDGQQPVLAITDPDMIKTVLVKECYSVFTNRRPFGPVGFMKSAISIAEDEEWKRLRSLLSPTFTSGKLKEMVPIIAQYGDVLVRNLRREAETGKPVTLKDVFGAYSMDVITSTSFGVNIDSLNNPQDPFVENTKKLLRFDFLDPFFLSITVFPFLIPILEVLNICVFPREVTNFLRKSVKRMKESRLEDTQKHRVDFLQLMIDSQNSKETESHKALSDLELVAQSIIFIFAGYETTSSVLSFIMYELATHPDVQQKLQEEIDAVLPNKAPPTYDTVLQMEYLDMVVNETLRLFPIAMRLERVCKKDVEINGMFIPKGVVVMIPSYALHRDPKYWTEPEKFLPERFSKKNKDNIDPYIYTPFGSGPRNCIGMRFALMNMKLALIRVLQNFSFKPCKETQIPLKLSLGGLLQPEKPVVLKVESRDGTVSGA
# Bcl-2-like protein 10, sequence (Q9HD36 whole entry): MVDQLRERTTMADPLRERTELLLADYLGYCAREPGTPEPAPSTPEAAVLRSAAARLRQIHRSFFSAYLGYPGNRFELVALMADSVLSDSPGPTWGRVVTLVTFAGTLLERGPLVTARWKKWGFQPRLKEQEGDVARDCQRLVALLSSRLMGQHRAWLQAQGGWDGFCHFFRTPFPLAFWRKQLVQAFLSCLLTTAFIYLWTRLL
compound,measurement,setting,value
CCC(C(=O)O)C1CCC(C)C(C(C)C(O)C(C)C(=O)C(CC)C2OC3(C=CC(O)[C@@]4(CC[C@](C)(C5CC[C@@](O)(CC)C(C)O5)O4)O3)C(C)CC2C)O1 (stereo partly drawn),AC50,Cytochrome P450 3A4,39.8 µM (inconclusive)
CN(Cc1ccccc1)C(=O)CCNC(=O)Cn1cnc2ccccc2c1=O,EC50,[1],> 35.4 µM (not active)
same,EC50,[2],> 35.4 µM (not active)
same,EC50,HEK293,> 35.4 µM (not active)
Cc1cnc(O)c([N+](=O)[O-])c1,EC50,[3],> 55.7 µM (not active)
same,EC50,[4],> 55.7 µM (not active)
O=C(OCc1nc2ccccc2s1)c1ccco1,AC50,[5],30.3 µM (active)
Cc1ccccc1OCC(O)CN1CCC(C)CC1 (stereo not drawn),EC50,[1],21.8 µM (not active)
same,EC50,[2],33.3 µM (not active)
same,EC50,HEK293,4.67 µM (active)
CCOC(=O)c1c(C)n(C)c2ccc(OC(C)C(=O)OC)cc12 (stereo not drawn),EC50,[6],> 10 µM (not active)
same,IC50,cells,20.9 µM (active)
COC(=O)[C@@H]1C[C@@]2(O)[C@H](O)[C@H](O)[C@H](O)C[C@H]2N1Cc1cc(OC)cc(OC)c1,AC50,Cytochrome P450 3A4,15.8 µM (inconclusive)
Cc1csc2nc(CNS(=O)(=O)N(C)C)cn12,IC50,Bcl-2-like protein 10,> 100 µM (inactive)
COCc1nnc(NC(=O)c2ccc(S(=O)(=O)N(C)C3CCCCC3)cc2)o1,EC50,[6],> 10 µM (not active)
O=C(NC1CCCC1)c1cccc(Cl)c1,AC50,[5],3.13 µM (active)
COc1ccc(Oc2c(Cl)cnn(-c3ccc(C)cc3)c2=O)cc1OC,IC50,[7],8.2 µM (active)
COc1ccc(Oc2c(Cl)cnn(-c3cccc(C(C)C)c3)c2=O)cc1,IC50,[7],1.7 µM (active)
